# Test results from ChEMBL document CHEMBL1141959, “Metalloform-selective inhibition: synthesis and structure-activity analysis of Mn(II)-form-selective inhibitors of Escherichia coli methionine aminopeptidase” (Bioorg Med Chem Lett, 2005).
# Key:
# [1] = target: T1, Methionine aminopeptidase (Escherichia coli K-12, UniProt P0AE18); experiment: Inhibitory activity against Fe(II) form of Escherichia coli MetAP
# T1 sequence (P0AE18 whole entry): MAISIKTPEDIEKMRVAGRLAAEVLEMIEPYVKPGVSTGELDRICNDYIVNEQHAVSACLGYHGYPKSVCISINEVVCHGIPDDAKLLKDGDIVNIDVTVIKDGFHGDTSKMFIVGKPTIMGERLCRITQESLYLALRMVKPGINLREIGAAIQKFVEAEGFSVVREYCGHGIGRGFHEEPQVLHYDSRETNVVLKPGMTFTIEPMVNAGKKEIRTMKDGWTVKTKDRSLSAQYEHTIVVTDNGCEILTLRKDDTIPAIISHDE
# [2] = target: T1, Methionine aminopeptidase; experiment: Inhibitory activity against Mn(II) form of Escherichia coli MetAP
# [3] = target: T1, Methionine aminopeptidase; experiment: Inhibitory activity against Ni(II) form of Escherichia coli MetAP
# [4] = target: T1, Methionine aminopeptidase; experiment: Inhibitory activity against Co(II) form of Escherichia coli MetAP
IC50 [1],IC50 [2],IC50 [3],IC50 [4],SMILES
31.1 µM,1.32 µM,38.4 µM,44.3 µM,O=C(O)c1ccc(-c2cc([N+](=O)[O-])ccc2Cl)o1
196 µM,1.71 µM,188 µM,187 µM,Cc1cccc(-c2ccc(C(=O)O)o2)c1Cl
> 200 µM,12.1 µM,> 200 µM,180 µM,O=C(O)c1ccc(-c2ccc(Cl)cc2)o1
97.7 µM,47.6 µM,56.3 µM,57.3 µM,N#CCc1ccc(-c2ccccc2Cl)o1
85.2 µM,0.893 µM,68 µM,55.4 µM,O=C(O)c1ccc(-c2ccccc2CF)o1
> 200 µM,166 µM,> 200 µM,> 200 µM,COC(=O)c1ccc(-c2ccccc2Cl)o1
> 200 µM,28.1 µM,55 µM,84.2 µM,OCc1ccc(-c2ccccc2Cl)o1
199 µM,1.22 µM,191 µM,158 µM,O=C(O)c1ccc(Cc2ccccc2Cl)o1
150 µM,1.11 µM,28.5 µM,59.5 µM,Cc1cc([N+](=O)[O-])ccc1-c1ccc(C(=O)O)o1
178 µM,40 µM,51.2 µM,57.5 µM,CONC(=O)c1ccc(-c2ccccc2Cl)o1
177 µM,0.784 µM,117 µM,77.3 µM,O=C(O)Cc1ccc(Cc2ccccc2Cl)o1
36.2 µM,0.642 µM,34.5 µM,24.1 µM,COc1ccc([N+](=O)[O-])cc1-c1ccc(C(=O)O)o1
> 200 µM,3.47 µM,194 µM,160 µM,COC(=O)c1ccccc1-c1ccc(C(=O)O)o1
138 µM,44.6 µM,89.8 µM,90.5 µM,O=C(O)c1ccc(Cc2ccc(Cl)cc2)o1
111 µM,3.65 µM,113 µM,93.5 µM,C=CCCOc1ccccc1-c1ccc(C(=O)O)o1
> 200 µM,11.7 µM,> 200 µM,199 µM,O=C(O)c1ccc(-c2cccc(Cl)c2)o1
199 µM,14.9 µM,193 µM,157 µM,O=C(O)c1ccc(-c2cc([N+](=O)[O-])ccc2F)o1

IC50 [1],IC50 [2],IC50 [3],IC50 [4],SMILES
0.793 µM,0.469 µM,5.9 µM,4.61 µM,O=C(NO)c1ccc(-c2ccccc2Cl)o1
58 µM,,5.78 µM,77.1 µM,NNC(=O)c1ccc(-c2ccccc2Cl)o1
95.8 µM,12.5 µM,94.5 µM,56.6 µM,Nc1ccccc1-c1ccc(C(=O)O)o1
> 200 µM,1.13 µM,> 200 µM,147 µM,CCOc1ccccc1-c1ccc(C(=O)O)o1
122 µM,9.84 µM,107 µM,119 µM,O=C(NO)c1ccc(Cc2ccccc2Cl)o1
> 200 µM,10 µM,190 µM,189 µM,O=C(O)c1ccc(-c2ccccc2CO)o1
178 µM,1.08 µM,175 µM,120 µM,O=C(O)c1ccc(-c2ccccc2[N+](=O)[O-])o1
169 µM,9.45 µM,163 µM,103 µM,COCCOc1ccccc1-c1ccc(C(=O)O)o1
> 200 µM,16.3 µM,195 µM,188 µM,O=C(O)c1ccc(-c2ccccc2)o1
33.7 µM,33.5 µM,67.5 µM,42.5 µM,O=C(O)c1ccc(Cc2ccccc2)o1
193 µM,4.71 µM,171 µM,98.9 µM,C#CCOc1ccccc1-c1ccc(C(=O)O)o1
> 200 µM,23.5 µM,> 200 µM,> 200 µM,O=C(O)c1ccc(-c2ccccc2C(=O)O)o1
69.2 µM,7.17 µM,67.5 µM,82.6 µM,O=Cc1ccccc1-c1ccc(C(=O)O)o1
190 µM,6.92 µM,153 µM,127 µM,O=C(O)c1ccc(-c2ccccc2O)o1
> 200 µM,15.9 µM,137 µM,71.4 µM,NC(=O)c1ccc(-c2ccccc2Cl)o1
158 µM,0.29 µM,165 µM,101 µM,O=C(O)c1ccc(-c2ccccc2C(F)(F)F)o1
> 200 µM,13.6 µM,> 200 µM,> 200 µM,O=C(O)c1ccc(-c2ccccc2F)o1
